Experimental data from PubChem BioAssay AID330 (DTP/NCI, 2004).
Values joined by “and” are separate entries in the source; they are usually repeats but may differ in a detail not shown here. Equal entries are not always repeated. Toxic doses and inconclusive results are not listed. Rule for the calls: active = survival T/C of 150% or more; inactive = T/C below 125% in these data.

Tested on: P388 leukemia ip, CD2F1 mice, survival T/C
Test: NCI In Vivo Anticancer Drug Screen. Data for tumor model P388 Leukemia (intraperitoneal) in CD2F1 (CDF1) mice
Conditions: endpoint: median survival time, higher = longer survival
Procedure, shortened: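 Mice carrying the transplanted tumor received test compound or vehicle. Survival was recorded in each group, and the value is the treated-group measurement divided by that of the vehicle-treated control group.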

[1] = dose: 50.0 mg/kg/injection, schedule: Q01DX005 (ip), vehicle: Klucel (hydroxypropylcellulose) (HPC)
[2] = dose: 100.0 mg/kg/injection, schedule: Q01DX005 (ip), vehicle: Klucel (hydroxypropylcellulose) (HPC)
[3] = dose: 200.0 mg/kg/injection, schedule: Q01DX005 (ip), vehicle: Klucel (hydroxypropylcellulose) (HPC)
[4] = dose: 50.0 mg/kg/injection, schedule: Q01DX005 (ip), vehicle: saline with Tween-80
[5] = dose: 100.0 mg/kg/injection, schedule: Q01DX005 (ip), vehicle: saline with Tween-80
[6] = dose: 60.0 mg/kg/injection, schedule: Q01DX005 (ip), vehicle: saline with Tween-80
[7] = dose: 120.0 mg/kg/injection, schedule: Q01DX005 (ip), vehicle: saline with Tween-80
[8] = dose: 240.0 mg/kg/injection, schedule: Q01DX005 (ip), vehicle: saline with Tween-80

Measured: T/C

CN(C)CC(CN(C)C)C(=O)c1ccc(Oc2ccccc2)cc1
inactive: dose: 7.5 mg/kg/injection, schedule: Q01DX005 (ip), vehicle: saline 123 % of control | dose: 15.0 mg/kg/injection, schedule: Q01DX005 (ip), vehicle: saline 120 % of control

Nc1ccc(-c2nc3ccccc3c(=O)[nH]2)cc1
inactive: dose: 12.5 mg/kg/injection, schedule: Q01DX009 (ip), vehicle: Klucel (hydroxypropylcellulose) (HPC) 86 % of control | dose: 25.0 mg/kg/injection, schedule: Q01DX009 (ip), vehicle: Klucel (hydroxypropylcellulose) (HPC) 100 % of control and 108 % of control and 92 % of control | dose: 100.0 mg/kg/injection, schedule: Q01DX009 (ip), vehicle: Klucel (hydroxypropylcellulose) (HPC) 122 % of control and 90 % of control and 94 % of control | dose: 200.0 mg/kg/injection, schedule: Q01DX009 (ip), vehicle: Klucel (hydroxypropylcellulose) (HPC) 111 % of control

CC[N+](CC)(CC)CC
inactive: dose: 3.13 mg/kg/injection, schedule: Q04DX003 (ip), vehicle: saline with Tween-80 100 % of control | dose: 12.5 mg/kg/injection, schedule: Q04DX003 (ip), vehicle: saline with Tween-80 118 % of control

CCOC(=O)c1ccc(OCC#N)cc1
inactive: [1] 93 % of control | [2] 102 % of control | [3] 98 % of control

Cc1ccc(C(=O)OC(CCN(C)C)c2ccccc2)cc1 (stereo unspecified)
inactive: dose: 50.0 mg/kg/injection, schedule: Q01DX009 (ip), vehicle: saline 109 % of control | dose: 100.0 mg/kg/injection, schedule: Q01DX009 (ip), vehicle: saline 106 % of control

COC(=O)C1CC(OC(C)=O)C(=O)[C@H]2C1(C)CC[C@H]1C(=O)O[C@H](c3ccoc3)CC12C (stereo partly specified)
inactive: dose: 19.0 mg/kg/injection, schedule: Q01DX005 (ip), vehicle: Klucel (hydroxypropylcellulose) (HPC) 94 % of control | dose: 38.0 mg/kg/injection, schedule: Q01DX005 (ip), vehicle: Klucel (hydroxypropylcellulose) (HPC) 87 % of control | dose: 76.0 mg/kg/injection, schedule: Q01DX005 (ip), vehicle: Klucel (hydroxypropylcellulose) (HPC) 90 % of control

C=C(C1=CC(=O)C(C)=C(OC)C1=O)C(CC=C(C)C)OC(=O)/C(C)=C/C (stereo unspecified)
inactive: dose: 1.56 mg/kg/injection, schedule: Q01DX005 (ip), vehicle: Klucel (hydroxypropylcellulose) (HPC) 92 % of control | dose: 3.12 mg/kg/injection, schedule: Q01DX005 (ip), vehicle: Klucel (hydroxypropylcellulose) (HPC) 99 % of control | dose: 6.25 mg/kg/injection, schedule: Q01DX005 (ip), vehicle: Klucel (hydroxypropylcellulose) (HPC) 101 % of control | dose: 12.5 mg/kg/injection, schedule: Q01DX005 (ip), vehicle: Klucel (hydroxypropylcellulose) (HPC) 96 % of control | dose: 25.0 mg/kg/injection, schedule: Q01DX005 (ip), vehicle: Klucel (hydroxypropylcellulose) (HPC) 102 % of control

CC1=C(OS(C)(=O)=O)CCC1=O
inactive: dose: 12.5 mg/kg/injection, schedule: Q01DX005 (ip), vehicle: saline with Tween-80 104 % of control | dose: 25.0 mg/kg/injection, schedule: Q01DX005 (ip), vehicle: saline with Tween-80 103 % of control | [4] 103 % of control and 107 % of control | [5] 106 % of control

Cc1onc(-c2c(Cl)cccc2Cl)c1C(=O)OCCOc1ccc(C(F)(F)F)cc1[N+](=O)[O-]
inactive: [6] 91 % of control | [7] 98 % of control | [8] 92 % of control

Cc1cccc(-n2c(-c3ccc(Cl)cc3)cs/c2=N\Nc2nnc(-c3ccccc3)c(-c3ccccc3)n2)c1
inactive: dose: 100.0 mg/kg/injection, schedule: Q04DX002 (ip), vehicle: saline with Tween-80 88 % of control | dose: 200.0 mg/kg/injection, schedule: Q04DX002 (ip), vehicle: saline with Tween-80 87 % of control | dose: 400.0 mg/kg/injection, schedule: Q04DX002 (ip), vehicle: saline with Tween-80 89 % of control

CC(C)Cc1ncc(CC(C)C)n(O)c1=O
inactive: dose: 12.5 mg/kg/injection, schedule: Q01DX005 (ip), vehicle: distilled water + Tween-80 95 % of control | dose: 25.0 mg/kg/injection, schedule: Q01DX005 (ip), vehicle: distilled water + Tween-80 103 % of control | dose: 50.0 mg/kg/injection, schedule: Q01DX005 (ip), vehicle: distilled water + Tween-80 101 % of control | dose: 100.0 mg/kg/injection, schedule: Q01DX005 (ip), vehicle: distilled water + Tween-80 100 % of control

COc1ccc(OC(=O)c2ccccc2)c2c1C(=O)C=CC2=O
inactive: dose: 1.56 mg/kg/injection, schedule: Q01DX005 (ip), vehicle: saline with Tween-80 116 % of control | dose: 3.13 mg/kg/injection, schedule: Q01DX005 (ip), vehicle: saline with Tween-80 111 % of control | dose: 6.25 mg/kg/injection, schedule: Q01DX005 (ip), vehicle: saline with Tween-80 111 % of control and 116 % of control

Cc1c(C=O)cc(-c2ccccc2)n1C
inactive: [4] 89 % of control | [5] 89 % of control | dose: 200.0 mg/kg/injection, schedule: Q01DX005 (ip), vehicle: saline with Tween-80 91 % of control

O=C1CCC([N+](=O)[O-])C(c2ccccc2)N1 (stereo unspecified)
inactive: dose: 50.0 mg/kg/injection, schedule: Q01DX009 (ip), vehicle: saline with Tween-80 100 % of control

N#CCCC12CCC(=O)N1Cc1ccccc1C2=O (stereo unspecified)
inactive: dose: 60.0 mg/kg/injection, schedule: Q01DX005 (ip), vehicle: saline 105 % of control | dose: 120.0 mg/kg/injection, schedule: Q01DX005 (ip), vehicle: saline 123 % of control | dose: 240.0 mg/kg/injection, schedule: Q01DX005 (ip), vehicle: saline 123 % of control

CCOc1ccc(-n2c(O)c(N=Nc3ccccc3OC)sc2=S)cc1
inactive: [1] 97 % of control | [2] 93 % of control | [3] 95 % of control

CN1C(=O)CCC1c1nc2ccccc2[nH]1 (stereo unspecified)
inactive: [6] 102 % of control | [7] 101 % of control | [8] 96 % of control

COc1ccc(NC(=O)c2cc3ccc4c5ccccc5[nH]c4c3cc2O)cc1
inactive: [4] 90 % of control | [5] 88 % of control

O=C(O)C(C1CC(Cl)=NO1)N1C(=O)c2ccccc2C1=O (stereo unspecified)
inactive: dose: 6.2 mg/kg/injection, schedule: Q04DX003 (ip), vehicle: other 101 % of control | dose: 12.5 mg/kg/injection, schedule: Q04DX003 (ip), vehicle: other 100 % of control | dose: 25.0 mg/kg/injection, schedule: Q04DX003 (ip), vehicle: other 105 % of control | dose: 50.0 mg/kg/injection, schedule: Q04DX003 (ip), vehicle: other 99 % of control | dose: 100.0 mg/kg/injection, schedule: Q04DX003 (ip), vehicle: other 101 % of control | dose: 200.0 mg/kg/injection, schedule: Q04DX003 (ip), vehicle: other 99 % of control

O=c1[nH]c2c([N+](=O)[O-])cc(Cl)cc2nc1/C=C(\O)c1cccnc1
inactive: dose: 60.0 mg/kg/injection, schedule: Q01DX005 (ip), vehicle: Klucel (hydroxypropylcellulose) (HPC) 99 % of control | dose: 120.0 mg/kg/injection, schedule: Q01DX005 (ip), vehicle: Klucel (hydroxypropylcellulose) (HPC) 99 % of control | dose: 240.0 mg/kg/injection, schedule: Q01DX005 (ip), vehicle: Klucel (hydroxypropylcellulose) (HPC) 111 % of control

COc1ccc(C2C3=C(CC(C)(C)CC3=O)Oc3cc4c(cc32)OCO4)cc1 (stereo unspecified)
inactive: [6] 93 % of control | [7] 96 % of control

CC1(C)COC1(c1ccccc1)c1cccnc1 (stereo unspecified)
inactive: [6] 97 % of control | [7] 102 % of control | [8] 93 % of control

Cc1ccc(C(=O)OC(C(=O)O)C(OC(=O)c2ccc(C)cc2)C(=O)O)cc1 (stereo unspecified) (tested in a mixture with another compound)
inactive: dose: 5.25 mg/kg/injection, schedule: Q01DX005 (ip), vehicle: Klucel (hydroxypropylcellulose) (HPC) 105 % of control | dose: 10.5 mg/kg/injection, schedule: Q01DX005 (ip), vehicle: Klucel (hydroxypropylcellulose) (HPC) 107 % of control | dose: 21.0 mg/kg/injection, schedule: Q01DX005 (ip), vehicle: Klucel (hydroxypropylcellulose) (HPC) 105 % of control | dose: 42.0 mg/kg/injection, schedule: Q01DX005 (ip), vehicle: Klucel (hydroxypropylcellulose) (HPC) 100 % of control
